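Tested at 5 concentrations; 48 h exposure; 96-well plates; endpoints linearly interpolated, else capped at highest concentration. Here, GI50 denotes the concentration required for 50% inhibition of growth. Definition used: TGI = concentration required for complete inhibition of growth.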 *1 amine or outer side, *2 acyl side, *3 side chain or, on linkers, in order; H or OH if unused. Where a SMILES comes first, the peptide text is derived from it. Bridges are numbered along the chain shown (N, C = ends). Roman numbers before positions name the chains, in order. [ ]: non-standard residue; d: D form. Actinocin(9to1) = Cc1c2oc3c(C)ccc(C(=O)[*:1])c3nc-2c(C(=O)[*:2])c(N)c1=O; NMeF = CN[CH](Cc1ccccc1)C(=O)O; Sar = CNCC(=O)O Some results are limits rather than exact numbers.

Some test systems named below: MDA-N; DLD-1 colon; DMS 273 small cell lung; KM20L2 colon; M19-MEL melanoma; SNB-78 CNS; XF 498 CNS; HOP-18 NSCLC; P388/ADR leukemia; RXF-631 renal; SN12K1 renal.
Common to all, as to test: NCI tumour cell line growth inhibition, 48 h

For `Oc1c(CN2CCN(c3ccccc3)CC2)cc(Br)c2cccnc12`, the TGI in the assay on MDA-N is more than 100 µM.
Regarding `C[C@]12CCC(=O)C=C1CC[C@@H]1C2CC[C@]2(C)c3nn(-c4ccccc4)nc3CC12` (stereo partly specified), the TGI with DLD-1 colon, with DMS 273 small cell lung, in the assay on KM20L2 colon, with M19-MEL melanoma, in the assay on SNB-78 CNS and in the assay with XF 498 CNS was more than 100 µM in each case.
With `O=NN(CCCl)C(=O)NC1CCC(CC2CCC(NC(=O)N(CCCl)N=O)CC2)CC1` (stereo unspecified), the TGI was more than 62.4 µM in the assay with DLD-1 colon; 85.5 µM in the assay with DMS 273 small cell lung; more than 56.2 µM with HOP-18 NSCLC; more than 100 µM in the assay on KM20L2 colon; more than 100 µM in the assay on M19-MEL melanoma; 5.03 µM in the assay with P388/ADR leukemia. Besides, the TGI with RXF-631 renal is more than 100 µM; with SN12K1 renal, 34.2 µM; in the assay on SNB-78 CNS, more than 87.3 µM; in the assay on XF 498 CNS, 19.8 µM.
Turning to `CCN(CC)CCNC(=O)c1cccc2nc3ccccc3nc12`, the TGI is more than 100 µM in the assay on DLD-1 colon; more than 100 µM in the assay on DMS 273 small cell lung; more than 63.4 µM in the assay with HOP-18 NSCLC; 67.8 µM with KM20L2 colon; 71.2 µM in the assay with SNB-78 CNS.
Take `N.N.O=P([O-])([O-])C1(P(=O)([O-])[O-])CCCCCN1.[Pt+2]`: the GI50 in the assay with DLD-1 colon is more than 100 µM; with DMS 273 small cell lung, more than 100 µM; in the assay on HOP-18 NSCLC, more than 100 µM; in the assay with KM20L2 colon, more than 100 µM; with SNB-78 CNS, 78.4 µM. In addition, the TGI with DLD-1 colon, in the assay on DMS 273 small cell lung, in the assay on HOP-18 NSCLC, in the assay with KM20L2 colon and in the assay on SNB-78 CNS was more than 100 µM throughout.
Consider `Cc1ccc([C@]2(C)CC[C@H](C)/C2=C\Br)c(O)c1`, for which, in the assay on MDA-N, the GI50 is 2.74 µM and the TGI was found to be 10.3 µM.
In the case of `CC(=O)[O-].O=C([CH-]C(=O)c1ccccc1)c1ccccc1.O=C([CH-]C(=O)c1ccccc1)c1ccccc1.[Sm+3]`, in the assay with KM20L2 colon, the GI50 was 7.33 µM and the TGI is 36.5 µM.
With `CC(C)=CC(=O)Cc1nc2ccc([N+](=O)[O-])cc2[nH]c1=O`, the TGI in the assay with DLD-1 colon, in the assay with DMS 273 small cell lung, with KM20L2 colon, with M19-MEL melanoma, with SNB-78 CNS and in the assay with XF 498 CNS was more than 100 µM in each case.
In the assay with MDA-N, `Oc1ccc(Cc2cc(Cl)cc(Cl)c2O)cc1Cl` showed a TGI of 22.4 µM.
Consider `CC1(C)CC(N(C(=O)/C=C/c2ccc([N+](=O)[O-])o2)C2CCCCC2)CC(C)(C)N1`, for which the TGI turned out to be 3.38 µM with DLD-1 colon; 18 µM in the assay on DMS 273 small cell lung; 37.4 µM in the assay with HOP-18 NSCLC; 18.8 µM in the assay with KM20L2 colon; 16.9 µM in the assay with M19-MEL melanoma; 23.4 µM in the assay on RXF-631 renal. Further, the TGI in the assay with SNB-78 CNS came out at 26.5 µM; in the assay with XF 498 CNS it was 23.5 µM.
For the compound `O=C(O)c1cc2ccccc2c2c1C(=O)c1ccccc1-2`, in the assay with MDA-N, the TGI is more than 100 µM.
On to `CCCCCCCCCCCCCCCCCC(=O)Nc1ccn(C2OC(CO)C(O)C2O)c(=O)n1` (stereo unspecified), for which the TGI in the assay on DLD-1 colon, in the assay with DMS 273 small cell lung, in the assay with HOP-18 NSCLC, in the assay on KM20L2 colon, with M19-MEL melanoma and with MDA-N was more than 100 µM each time. In addition, in the assay on SNB-78 CNS, the TGI is more than 100 µM.
With `CN(C)CC/C(=N\Nc1ccc(Cl)cc1Cl)c1ccccc1`, the TGI amounted to 23.8 µM in the assay with DLD-1 colon; 27 µM in the assay with DMS 273 small cell lung; 28.7 µM with HOP-18 NSCLC; 27.5 µM with KM20L2 colon; 31.5 µM in the assay with M19-MEL melanoma; 27.6 µM in the assay on SNB-78 CNS.
For `O=C(CCC(=O)C1CCC/C1=N/O)Nc1ccc(Cl)cc1` (stereo unspecified), the TGI in the assay on DLD-1 colon, with DMS 273 small cell lung, in the assay with HOP-18 NSCLC, with KM20L2 colon, in the assay with M19-MEL melanoma and in the assay on RXF-631 renal was more than 100 µM in each case. The TGI with SNB-78 CNS and in the assay on XF 498 CNS was more than 100 µM each time.
As for `COc1ccccc1C(=O)N(C)c1ccc(Cl)c(C(=O)OC(C)C)c1`, in the assay on MDA-N, the TGI was more than 100 µM.
The same measure, in the same setting: with `Cc1c([N+](=O)[O-])oc2ccc3ccccc3c12` the figure was more than 100 µM.
Turning to `Cn1cccc1/C=C/c1cc(Br)c(/C=C/c2cccn2C)cc1Br`, the TGI in the assay on DLD-1 colon was 4.97 µM; in the assay with DMS 273 small cell lung it was 38.3 µM; with HOP-18 NSCLC, 28 µM; in the assay with KM20L2 colon, 58.4 µM; with M19-MEL melanoma, 53.7 µM; with RXF-631 renal it was 49.4 µM.
In the assay on MDA-N, `CC(C)=CCCC(C)C1=C(O)C(=O)C(C)=CC1=O` (stereo unspecified) had a TGI of 21.7 µM.
Take `CCc1cccc(C)c1NC(=O)CC1C(=O)Nc2ccccc2S1(=O)=O` (stereo unspecified): the TGI with DLD-1 colon came out at 40.4 µM; in the assay with DMS 273 small cell lung, 25 µM; in the assay with KM20L2 colon, 34.2 µM; with M19-MEL melanoma it was 38.9 µM; in the assay on RXF-631 renal it was 33 µM; in the assay on SNB-78 CNS, 53.7 µM. For the same compound, the TGI with XF 498 CNS worked out at 26.2 µM.
`Cc1c2oc3c(C)ccc(C(=O)NC4C(=O)NC(C(C)C)C(=O)N5CCCC5C(=O)N(C)CC(=O)N(C)C(Cc5ccccc5)C(=O)OC4C)c3nc-2c(C(=O)NC2C(=O)NC(C(C)C)C(=O)N3CCCC3C(=O)N(C)CC(=O)N(C)C(Cc3ccccc3)C(=O)OC2C)c(N)c1=O` (stereo unspecified) (I: TVP[Sar][NMeF] / II: TVP[Sar][NMeF]; ester I:1-I:C, II:1-II:C; linker I:N-II:N via Actinocin(9to1); configuration not given here): in the assay on MDA-N, the GI50 is 0.00491 µM and the TGI turned out to be 0.0564 µM.

(Values after PubChem BioAssay (NCI).)
